Data taken from patent publication US11957677B2, “Cancer treatment using FGFR inhibitors and PLK1 inhibitors” (Cardiff Oncology, Inc., priority 2021, dated 2024).

How the values were obtained:
γ-H2AX [1] = experiment: γ-H2AX by Western Blot; format: cell-based; details: NCI-H1703
IGFR = IGFR (Homo sapiens, UniProt P08069); details: cellular; read-out: IC50, cellular IGFR ligand-induced phosphorylation; cited from earlier work
γ-H2AX [2] = experiment: γ-H2AX positive cells by flow cytometry; format: cell-based; details: NCI-H1703
Text: To confirm the above observations, percentage of γ-H2AX positive cells was quantified using flow cytometry.

[3] = system: FGFR1-amplified lung cancer cells; details: in combination with FGFR inhibitors; cited from earlier work
AML cell lines = details: cited from earlier work
[4] = patients, cited from earlier work
[5] = system: phosphorylated histone H3 (pHH3); experiment: pHH3 positive cells by flow cytometry; format: cell-based; details: NCI-H1703
Experimental: (§1) The percentage of pHH3 positive cells was also determined using flow cytometry at 24 h and 48 h.

NCI-H1703 cells [6] = experiment: colony forming capacity, crystal violet staining; format: cell-based; details: onvansertib 50 nM, AZD4547 250 nM
Text: The culture media was changed again after 3 days. After culturing for another 6 days, the NCI-H1703 cells were stained with crystal violet. The workflow of determining colony forming capacity is illustrated in FIG. 21. […] The colonies formed by NCI-H1703 cells shown in FIG. 22 were quantified as indicated by percentage relative intensity (FIG. 23).

NCI-H1703 cells [7] = experiment: cell cycle analysis; format: cell-based; details: 48 hrs, onvansertib 50 nM, AZD4547 2.5 μM
Experimental: as §1

cleaved caspase-3 [8] = experiment: cleaved-caspase-3 positive cells by flow cytometry; format: cell-based; details: NCI-H1703; 24 h and 48 h; onvansertib 50 nM, AZD4547 2.5 μM
cleaved caspase-3 [9] = experiment: cleaved caspase-3 by Western Blot; format: cell-based; details: NCI-H1703; 24 h and 48 h; onvansertib 50 nM, AZD4547 2.5 μM
Experimental: In addition, the amounts of cleaved caspase-3 and cleaved PARP were determined at 6 h, 24 h and 48 h after different treatments using Western Blot.

PLK1 = PLK1 (Homo sapiens, UniProt P53350); details: among a panel of 296 kinases, including other PLK members; cited from earlier work
NPM at Threonine 199 = experiment: phosphorylation of NPM at Threonine 199; format: cell-based; details: NCI-H1703; 6 hrs, 24 hrs and 48 hrs
[10] = time point not given, compared to cells receiving no treatment
[11] = time point not given, compared to DMSO
[12] = 24 h and 48 h, onvansertib 50 nM, AZD4547 2.5 μM

Chain of IGFR (P08069 31-1367): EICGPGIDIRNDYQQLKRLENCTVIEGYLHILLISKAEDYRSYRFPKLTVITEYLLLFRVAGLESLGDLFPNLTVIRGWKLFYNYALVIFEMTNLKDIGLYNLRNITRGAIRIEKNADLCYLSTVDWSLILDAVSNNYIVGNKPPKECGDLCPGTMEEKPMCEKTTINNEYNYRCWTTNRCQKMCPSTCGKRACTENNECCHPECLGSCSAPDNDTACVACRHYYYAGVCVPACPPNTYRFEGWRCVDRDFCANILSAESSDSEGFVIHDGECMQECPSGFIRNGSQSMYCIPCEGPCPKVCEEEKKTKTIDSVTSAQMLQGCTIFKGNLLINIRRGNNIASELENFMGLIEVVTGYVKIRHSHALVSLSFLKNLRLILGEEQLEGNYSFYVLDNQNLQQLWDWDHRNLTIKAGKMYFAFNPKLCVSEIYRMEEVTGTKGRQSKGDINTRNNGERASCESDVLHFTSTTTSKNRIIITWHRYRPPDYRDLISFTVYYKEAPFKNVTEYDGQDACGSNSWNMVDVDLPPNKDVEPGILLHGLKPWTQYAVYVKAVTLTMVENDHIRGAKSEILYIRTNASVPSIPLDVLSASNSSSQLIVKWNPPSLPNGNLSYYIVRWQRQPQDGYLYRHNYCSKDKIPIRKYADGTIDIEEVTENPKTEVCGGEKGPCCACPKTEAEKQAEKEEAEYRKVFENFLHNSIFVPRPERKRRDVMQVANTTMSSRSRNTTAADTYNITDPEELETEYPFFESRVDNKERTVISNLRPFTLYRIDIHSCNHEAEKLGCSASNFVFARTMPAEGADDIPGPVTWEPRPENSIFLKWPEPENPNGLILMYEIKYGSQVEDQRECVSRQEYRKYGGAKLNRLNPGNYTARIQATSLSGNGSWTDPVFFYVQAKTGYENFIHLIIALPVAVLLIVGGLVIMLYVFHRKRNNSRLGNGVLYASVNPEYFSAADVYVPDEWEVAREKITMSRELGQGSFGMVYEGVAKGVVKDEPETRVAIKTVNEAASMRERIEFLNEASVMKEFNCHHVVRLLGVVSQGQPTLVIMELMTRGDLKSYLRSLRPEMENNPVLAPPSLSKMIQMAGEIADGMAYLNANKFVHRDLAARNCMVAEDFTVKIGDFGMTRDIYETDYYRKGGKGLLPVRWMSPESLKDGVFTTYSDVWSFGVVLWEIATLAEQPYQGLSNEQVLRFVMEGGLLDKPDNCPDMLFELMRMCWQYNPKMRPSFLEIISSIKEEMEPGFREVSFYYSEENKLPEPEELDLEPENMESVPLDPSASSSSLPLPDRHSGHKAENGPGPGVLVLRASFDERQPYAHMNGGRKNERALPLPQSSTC
Chain of PLK1 (P53350 whole entry): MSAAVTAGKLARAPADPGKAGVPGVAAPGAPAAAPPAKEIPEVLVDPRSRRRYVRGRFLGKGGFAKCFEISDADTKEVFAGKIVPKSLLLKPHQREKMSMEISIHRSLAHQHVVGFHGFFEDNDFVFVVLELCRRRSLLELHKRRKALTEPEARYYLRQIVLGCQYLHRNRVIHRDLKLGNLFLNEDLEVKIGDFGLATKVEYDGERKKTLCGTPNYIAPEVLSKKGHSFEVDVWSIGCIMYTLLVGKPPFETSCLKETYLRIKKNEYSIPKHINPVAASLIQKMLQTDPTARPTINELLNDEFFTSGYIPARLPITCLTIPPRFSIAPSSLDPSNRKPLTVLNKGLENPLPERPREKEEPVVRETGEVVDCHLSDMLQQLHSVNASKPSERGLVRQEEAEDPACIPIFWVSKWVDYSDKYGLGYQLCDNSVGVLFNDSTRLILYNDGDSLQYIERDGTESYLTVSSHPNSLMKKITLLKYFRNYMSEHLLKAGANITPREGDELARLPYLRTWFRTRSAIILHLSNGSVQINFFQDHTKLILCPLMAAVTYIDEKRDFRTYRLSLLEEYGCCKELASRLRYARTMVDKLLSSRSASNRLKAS

Row | Structure (SMILES) | amounts of γ-H2AX (γ-H2AX [1]; [10]) | IC50 (IGFR) [nM] | percentage of γ-H2AX positive cells (γ-H2AX [2]; [11]) | antiproliferative effects and apoptosis [3] | inhibition of cell proliferation (AML cell lines) | primary dose-limiting toxicities ([4]; phase I dose-escalation) | recovery of hematologic toxicities ([4]; reversible toxicities, phase I) [weeks] | percentage of pHH3 positive cells ([5]; 24 h) | percentage of pHH3 positive cells ([5]; 48 h) | amounts of γ-H2AX (γ-H2AX [1]; [12]) | colony-forming capacity (NCI-H1703 cells [6]) | % of cells in G2 and/or mitotic stages (NCI-H1703 cells [7]) | percentage of cleaved-caspase-3 positive cells (cleaved caspase-3 [8]) | amount of cleaved caspase-3 (cleaved caspase-3 [9]) | specificity for PLK1 (PLK1) | phosphorylation of NPM at Threonine 199 (NPM at Threonine 199) | percentage of γ-H2AX positive cells (γ-H2AX [2]; [12])
1 | COc1cc(CCc2cc(NC(=O)c3ccc(N4C[C@@H](C)N[C@@H](C)C4)cc3)n[nH]2)cc(OC)c1 [AZD4547, N-[5-[2-(3,5-Dimethoxyphenyl)ethyl]-2H-pyrazol-3-yl]-4-(3,5-diemthylpiperazin-1-yl)benzamide] | about the same | 828 | about the same |  |  |  |  |  |  |  |  |  |  |  |  |  | 
2 | CC[C@@H]1C(=O)N(C)c2cnc(Nc3ccc(C(=O)NC4CCN(C)CC4)cc3OC)nc2N1C1CCCC1 [BI2536] |  |  |  | synergistically enhances antiproliferative effects and apoptosis |  |  |  |  |  |  |  |  |  |  |  |  | 
3 | CN1CCN(c2ccc(OC(F)(F)F)c(Nc3ncc4c(n3)-c3c(c(C(N)=O)nn3CCO)CC4)c2)CC1 [onvansertib, 1-(2-hydroxyethyl)-8-{[5-(4-methylpiperazin-1-yl)-2-(trifluoromethoxy)phenyl]amino}-4,5-dihydro-1H-pyrazolo[4,3-h] quinazoline-3-carboxamide] | about the same |  | about the same |  | inhibited cell proliferation at nanomolar concentrations | neutropenia and thrombocytopenia | ≤ 3 | increased the percentage of pHH3 positive cells | increased the percentage of pHH3 positive cells to a similar extent | increased the γ-H2AX | reduced the colony-forming capacity | increased the % of cells in G2 and/or mitotic stages | increased the percentage of cleaved-caspase-3 positive cells | increased the cleaved caspase-3 | high specificity | Increased phosphorylation of NPM | increased the percentage of γ-H2AX positive cells
